Measurements taken from patent US11033630B2, “Method and pharmaceutical composition for treatment of neurodegeneration” (priority 2016, dated 2021).
Where two headings read alike, the source gives them in different places. One block for each molecule: values may come before it.

Legend:
[1] = Behavior of rats monitored after IP injection; conditions: monitored for 90 min
Protocol: (§1) In particular, male Sprague-Dawley (SD) rats (300 g average body weight, 3 animals per group) were injected IP with DFO (250, 500, or 1000 mg/kg body weight). For comparison, Zn-DFO solution in freshly prepared saline was injected IP (250, 500, or 1000 mg/kg body weight, which are equivalent to 883, 442, or 221 mg DFO/kg body weight, respectively).
(§2) The behavior of the rats was monitored for 90 min following the injection.

[2] = complex with Ga(III); cited from earlier work
[3] = complex with Cu(II); cited from earlier work
[4] = complex with Zn(II); cited from earlier work
[5] = Blood-Brain Barrier (BBB) penetration: DFO concentration in rat brain after IP injection; conditions: for DFO (mg/g organ) / DFO (mg/whole organ): rat brain, 90 min after IP injection
Protocol: (§3) In this study, the ability of the Zn-DFO complex to infiltrate into the brain was examined. Rats were injected intraperitoneally (IP) with increasing amounts of DFO alone or Zn-DFO complex, and the concentration of DFO was measured in their brains, thus monitoring their infiltrability.
as §1
(§4) The behavior of the rats was monitored for 90 min following the injection. Then, the animals were euthanized using an injection of ketamine-xylazine, and their hearts, livers, left kidneys, and brains were excised and weighted. Brain samples (300 mg tissue) were homogenized in 3 ml Lysis buffer. Tissue homogenates were incubated at 110° C. for 5 min and centrifuged for 5 min at 14,500 relative centrifugal force (RCF). An equal volume of 40% trichloroacetic acid (TCA) solution was added, forming a solution containing 20% TCA, which was vortexed and centrifuged again. The supernatants were transferred into cuvettes, and DFO concentration was spectrophotometrically measured, after addition of 10 mM of ferric iron solution (as a weak complex of iron, ferric-nitrilo-tri-acetate, at pH=7.4), and scanning the range of λ=380-580 nm. The final concentration was calculated according to the Beer-Lambert law, using εDFO=2460 M^−1cm^−1; the total amount of DFO per gram tissue and per whole brain were calculated.

[6] = complex with Fe(III); cited from earlier work
[7] = test system: streptozotocin (STZ)-induced model in C57BL/6 mice; assay: Streptozotocin-induced model of Alzheimer disease; assay type: in vivo; conditions: IP, Zn-DFO/Ga-DFO 2 and 6 mg/kg daily, Eu-DFO 4 mg/kg
Protocol: In this study, the therapeutic effect of metal-DFO complex on Alzheimer disease is tested, using the streptozotocin (STZ)-induced model in mice.
The disease is induced in 10 weeks old male C57BL/6 mice. The animals are placed into a stereotaxic frame for mice with nose and ear bars. STZ (3 mg/kg) or citrate buffer (for the control group) is injected bilaterally into the lateral ventricles at the following coordinates: AP—0.5 mm; ML ±1.1 mm; DV—2.8 mm relative to the bregma in a total volume of 1.5 μl to hemisphere. The injections are repeated 2 days after the first STZ injection (1.5 mg/kg). In order to confirm that the stereotaxic coordinates used throughout the study are suitable for STZ injection into lateral ventricles, FITC-labeled latex microspheres are injected into lateral ventricles and the presence of fluorescence in the surrounding brain tissue is examined 24 h after injection. Mice are treated with Zn-DFO or Ga-DFO daily, by IP injections of 2 mg/kg and 6 mg/kg, and with Eu-DFO as IP injection, 4 mg/kg. During 21 days of the experiment the mice undergo maze tests and novel object recognition (NOR) tests every 7 days. Clinical signs including general body condition and dehydration are monitored daily after the surgery. Every 7 days a representative number of mice is taken from each group and euthanized for Alzheimer's disease markers (amyloid-β protein, neurofilament expression, phosphorylation of Tau protein, synapsin expression) biochemical and histochemical evaluation (Ravelli et al., 2016).

[8] = test system: MOG35-55-induced EAE in C57BL/6 mice; assay: Experimental Autoimmune Encephalomyelitis (EAE), model for multiple sclerosis; assay type: in vivo
Protocol: In this study, the therapeutic effect of metal-DFO complex on multiple sclerosis (MS) is tested, using the Experimental Autoimmune Encephalomyelitis (EAE) in mice.
EAE is induced in 8-week-old female C57BL/6 mice by subcutaneous (SC) injection of 125 μg of myelin oligodendrocyte glycoprotein 35-55 peptide (MOG35-55) emulsified in complete Freund's adjuvant (CFA) containing 5 mg/ml heat-killed Mycobacterium tuberculosis into the left para-lumbar region. Immediately thereafter, and again at 48 h, the mice are inoculated intraperitoneal (IP) with 0.5 ml of pertussis toxin (400 ng). Seven days later, the mice are further challenged with an additional injection of MOG35-55 peptide in CFA injected into the right para-lumbar region. Mice are treated with Zn-DFO or Ga-DFO daily as IP injections, 2 mg/kg and 6 mg/kg.
The severity of the disease is assessed using the scale shown in Table 2 (Bittner et al., 2014).

[9] = test system: MPTP model in C57BL/6 mice; assay: MPTP mouse model of Parkinson's disease; assay type: in vivo; conditions: 2 mg/kg daily IP
Protocol: In this study, the therapeutic effect of metal-DFO complex on Parkinson's disease is tested, using the 1-methyl-4-phenyl-1,2,3,6-tetrahydropyridine (MPTP) model in mice.
Parkinson's disease is induced in 10 weeks old male C57BL/6 mice by four continuous IP injections of 20 mg/kg of MPTP, every 2 hours and during 8 hours, for 5 days (Jackson-Lewis and Przedborski, 2007). The animals are treated with Zn-DFO or Ga-DFO by daily IP injections, 2 mg/kg and 6 mg/kg, 30 min prior to the first exposure to MPTP. On day 8 the animals are euthanized. Immediately after the euthanasia, the striata are dissected out to perform biochemical and histological assessment of the damage to dopaminergic innervation.

[10] = test system: contusion spinal cord injury model in C57BL/6 mice; assay: Contusion spinal cord injury model; assay type: in vivo; conditions: 3 mg/kg IP
Protocol: In this study, the therapeutic effect of metal-DFO complex on spinal cord injury was tested, using a contusion spinal cord injury model in C57BL/6 mice.
A contusion spinal cord injury model was employed using Infinite Horizon spinal cord impactor. The injury was performed at force setting of 70 kilodyne, for 100 ms (milisecond) on exposed T12 vertebra of the mouse (8 weeks old male), anesthetized with a ketamine-xylazine mixture (85:15), and immobilized. Immediately before the impact, the mice were injected with buprenorphine (0.1 mg/ml/kg body weight) as an analgesic.
Twenty one mice, after contusion, were divided into three groups (n=7), according to their treatment as following (Basso et al., 2006): Group 1—control untreated; Group 2—treated with saline (IP injections of 100 μl on Days 1, 2, 3, 4, 6, 8, 10, 12, 14, 17, 20, 23, 27, 31, 35, 39, and 42); Group 3—treated with Zn-DFO complex, 3 mg/kg body weight in saline (IP injections of 100 μl according to the same regimen as Group 2). Both treated groups (saline and Zn-DFO complex) received the first treatment 10 min following the Impactor-induced trauma.
The post-traumatic recovery of mice locomotion with or without treatment was assessed on a daily basis for the next 43 days, using open field Basso mouse scale (BMS) score as following: 0—no ankle movement; 1—slight ankle movement; 2—extensive ankle movement; 3—plantar placing of the paw with or without weight support, or occasional, frequent or consistent dorsal stepping but no plantar stepping; 4—occasional plantar stepping; 5—frequent or consistent plantar stepping, no coordination, or frequent or consistent plantar stepping, some coordination, paws rotated at initial contact and lift off (R/R); 6—frequent or consistent plantar stepping, some coordination, paws parallel at initial contact (P/R, P/P), or frequent or consistent plantar stepping, mostly coordinated, paws rotated at initial contact and lift off (R/R); 7—frequent or consistent plantar stepping, mostly coordinated, paws parallel at initial contact and rotated at lift off (P/R), or frequent or consistent plantar stepping, mostly coordinated, paws parallel at initial contact and lift off (P/P), and severe trunk instability; 8—frequent or consistent plantar stepping, mostly coordinated, paws parallel at initial contact and lift off (P/P), and mild trunk instability, or frequent or consistent plantar stepping, mostly coordinated, paws parallel at initial contact and lift off (P/P), and normal trunk stability and tail down or up & down; and 9—frequent or consistent plantar stepping, mostly coordinated, paws parallel at initial contact and lift off (P/P), and normal trunk stability and tail always up (P—parallel; R—rotated). The values were normalized considering the basal score on Day 0 as 100%.
On Day 43, the animals were euthanized, and their spinal cords were excised and stored in paraformaldehyde (PFA) 4% for histological analysis. Epon blocks were prepared, and the histological analysis was performed after staining with methylene blue.

[11] = rat, in vivo, ip
Protocol: as §1, §2

H9C2 cardiomyocytes = assay: Penetration of cellular membranes in tissue culture model; assay type: in vitro ADME; conditions: data not shown
From the text: It is postulated that some of the useful effects exerted by DFO in inhibiting ROS formation are achieved through its actions as a chelating agent (chelant, chelator, or sequestering agent), capable of forming soluble complexes, i.e., chelates, with certain metal ions and consequently inactivating said metal ions such that they cannot normally react with other elements or ions. Such chelates often have chemical and biological properties that are markedly different from those of either the chelator or metal ion, alone. For example, whereas DFO is a molecule having a noodle-like structure that can sparingly infiltrate into cells, metal-chelates formed by said molecule, e.g., the zinc-, gallium- or iron-chelates, assume a globular structure capable of infiltrating into cells.

[12] = rat, in vivo, ip; remark: listed apart in the source
Protocol: as §3, §1, §4

DFO (mg/g organ) ([5]; 250 mg/kg): <0.005 mg/g organ
DFO (mg/whole organ) ([5]; 250 mg/kg): <0.005 mg/whole organ
DFO (mg/g organ) ([5]; 500 mg/kg): <0.005 mg/g organ
DFO (mg/whole organ) ([5]; 500 mg/kg): <0.005 mg/whole organ
DFO (mg/g organ) ([5]; 1000 mg/kg): 0.008 ± 0.004 mg/g organ
DFO (mg/whole organ) ([5]; 1000 mg/kg): 0.019 ± 0.008 mg/whole organ
DFO infiltrated the brain (%) ([5]; rat, IP, 250 mg/kg): <0.0015%
DFO infiltrated the brain (%) ([5]; rat, IP, 500 mg/kg): <0.0015%
DFO infiltrated the brain (%) ([5]; rat, IP, 1000 mg/kg): 0.002%
fraction of DFO that had infiltrated into the brain ([5]; rat, IP, over the 3 doses (250, 500 and 1000 mg/kg)): ≤ 0.002%
Molecule: CC(=O)N(O)CCCCCNC(=O)CCC(=O)N(O)CCCCCNC(=O)CCC(=O)N(O)CCCCCN [DFO, N′-[5-(Acetyl-hydroxy-amino)pentyl]-N-[5-[3-(5-aminopentyl-hydroxy-carbamoyl)propanoylamino]pentyl]-N-hydroxy-butane diamide]
changes in rats' behavior ([1]; IP 250 mg/kg): no changes in rats' behavior was observed
changes in rats' behavior ([1]; IP 500 mg/kg): no changes in rats' behavior was observed
changes in rats' behavior ([1]; IP 1000 mg/kg): no changes in rats' behavior was observed
relative stability constant of DFO complex [2]: 10^28
relative stability constant of DFO complex [3]: 10^14
relative stability constant of DFO complex [4]: 10^11
relative stability constant of DFO complex [6]: 10^31

Molecule: CC(=O)N(O)CCCCCNC(=O)CCC(=O)N(O)CCCCCNC(=O)CCC(=O)N(O)CCCCCN.[Eu+3] [Eu-DFO]
diminishing expression of synapsin [7]: Only a minute effect
expression of Aβ protein and phosphorylation of Tau protein in the hippocampus [7]: slightly better than Ga-DFO

Molecule: CC(=O)N([O-])CCCCCNC(=O)CCC(=O)N([O-])CCCCCNC(=O)CCC(=O)N([O-])CCCCCN.[Ga+3] [Ga-DFO, gallium-desferrioxamine B]
onset of the disease ([8]; 2 mg/kg daily IP): 14 days
onset of the disease ([8]; 6 mg/kg daily IP): 15 days
diminishing expression of synapsin [7]: attenuate this process dose-dependently
expression of Aβ protein and phosphorylation of Tau protein in the hippocampus [7]: inhibited
impairment of maze and NOR test outcomes [7]: (largely) prevent this impairment in a dose-dependent manner
number of TH-positive neurons within the substantia nigra (% of control) [9]: 65%

changes in rats' behavior ([11]; 1000 mg/kg): passive and apathetic
ability to infiltrate into the cells relative to DFO alone (H9C2 cardiomyocytes): more than threefold higher
infiltrability into the brain relative to DFO alone [12]: at least 8.6 fold
DFO (mg/g organ) ([12]; 250 mg/kg): 0.017 ± 0.002 mg/g organ
DFO (mg/whole organ) ([12]; 250 mg/kg): 0.032 ± 0.004 mg/whole organ
DFO infiltrated the brain (%) ([12]; 250 mg/kg): 0.014%
DFO (mg/g organ) ([12]; 500 mg/kg): 0.031 ± 0.001 mg/g organ
DFO (mg/whole organ) ([12]; 500 mg/kg): 0.054 ± 0.002 mg/whole organ
DFO infiltrated the brain (%) ([12]; 500 mg/kg): 0.012%
DFO (mg/g organ) ([12]; 1000 mg/kg): 0.072 ± 0.011 mg/g organ
DFO (mg/whole organ) ([12]; 1000 mg/kg): 0.133 ± 0.010 mg/whole organ
DFO infiltrated the brain (%) ([12]; 1000 mg/kg): 0.014%
Molecule: Zinc-desferrioxamine B [Zn-DFO]
onset of the disease ([8]; 2 mg/kg daily IP): 14 days
onset of the disease ([8]; 6 mg/kg daily IP): 15 to 16 days
peak clinical score ([8]; 6 mg/kg daily IP, Day 19, Table 2 scale): less than 3
BMS score ([10]; Day 13): 5.1
normalized BMS score (% of initial scoring, Day 0) ([10]; Day 13): 347%
normalized BMS score (% of initial scoring), plateau ([10]; Day 29): 389%
BMS score, plateau ([10]; Day 29, scale 0-9): 5.7
density of axons and axonal myelin sheath in white matter ([10]; spinal cord histology, Day 43): restoring the density of axons and axonal myelin sheath
white matter area (fraction of the total area) ([10]; spinal cord histology, Day 43): 50.8±3.3%
body weight gain ([10]; vs non-treated or saline-treated animals): gained weight better than the non-treated or saline-treated animals
changes in rats' behavior ([11]; 250 mg/kg): no changes in the rats' behavior could be identified
changes in rats' behavior ([11]; 500 mg/kg): no changes in the rats' behavior could be identified
diminishing expression of synapsin [7]: attenuate this process dose-dependently
expression of Aβ protein and phosphorylation of Tau protein in the hippocampus [7]: inhibited
impairment of maze and NOR test outcomes [7]: (largely) prevent this impairment in a dose-dependent manner
number of TH-positive neurons within the substantia nigra (% of control) [9]: 65%
